Publication PMC4830886, “Extended evaluation on the ES-D3 cell differentiation assay combined with the BeWo transport model, to predict relative developmental toxicity of triazole compounds” (Archives of Toxicology, 2015)

Key:
BeWo b30 cell layers = test: in vitro BeWo transport model (placental transfer)
Method: (§1) To study placental transfer of test compounds, BeWo transport experiments were performed as described previously (Li et al. [2013]). Briefly, BeWo b30 cells (passages 27–45) were cultured in DMEM (Zwijndrecht, The Netherlands), supplemented with 10 % (v/v) heat-inactivated FCS (HyClone-Perbio, Etten-Leur, The Netherlands), 10,000 U/ml penicillin, 10 mg/ml streptomycin and 2 mM L-glutamine. The cells were seeded at a density of 1 × 10^5 cells/cm^2 on transwell® polycarbonate membranes (12 mm diameter, 0.4 μm pore size) (VWR International BV, Amsterdam, The Netherlands) coated with human placental collagen. The medium (0.5-ml apical compartment, 1.5-ml basolateral compartment) was replaced daily. At day 6 postseeding, the BeWo b30 cell layers were used for transport experiments. The barrier-forming capacity of the BeWo cell layers was evaluated by measuring the transepithelial electrical resistance (TEER) of the cell monolayer using a Millicell ERS-2 Volt-Ohm Meter (Millipore, USA) at day 6 postseeding as described previously (Li et al. [2013]). Only the cell layers showing TEER values between 80 and 100 Ω cm^2 were used for transport experiments.
(§2) Transport experiments were initiated by adding 0.5 ml of transport buffer Hank’s balanced salt solution (HBSS, Invitrogen, Breda, The Netherlands) containing the test compound, being 0594, 0595, 0596, 0599, 0600 and 0618, dissolved in DMSO (final solvent concentration 0.5 % DMSO), at concentration of 50 μM, to the apical compartment and 1.5 ml transport buffer to the basolateral compartment. Subsequently, the plate was incubated in a humidified atmosphere with 5 % CO2 at 37 °C. After 15, 30, 60 and 90 min, a sample of 0.2 ml was taken from the basolateral compartment and replaced by an equal volume of transport buffer. At the end of each experiment, a 0.2-ml sample was also taken from the apical compartment. Subsequently, the filters with the BeWo b30 cell layers were washed three times with PBS, cut out of the insert, dissolved in 0.25 ml 65 % (v/v) methanol and sonificated for 15 min in a Bandelin Sonorex RK100 (Berlin, Germany) in order to determine the amount of compound accumulated in the cells. After each experiment, mass balance calculations were performed. In each transport study, amoxicillin and antipyrine were included as control and reference compounds. Amoxicillin transport was included to assess for monolayer integrity since it is a compound known to be transported only to a limited extent across the placenta, whereas antipyrine was included as a control for optimal transport and a reference compound to enable calculation of relative transport rates (Li et al. [2013]). The transport of the six test compounds, as well as the reference compounds amoxicillin and antipyrine, through the permeable membrane of the transwell filter in the absence of BeWo cells was determined as well. […] For each test compound, three independent experiments were performed, with three technical replicates per experiment.
(§3) Samples were analyzed using high-performance liquid chromatography (HPLC) to quantify the amount of test compound in order to determine the transport rate and to perform mass balance calculations. The HPLC system used consisted of a Waters (Milford, MA) 600 controller and a 600 pump, equipped with a photodiode array detector set to record absorption of wavelengths between 200 and 400 nm. A Waters 717 plus autosampler was used for sample injection. The temperature of the autosampler was kept at 7 °C.
(§4) For analysis of all compounds, 50 μl sample was injected to a C18 5 μm reverse-phase column (150 mm × 4.6 mm I.D.) with a guard column (7.5 mm × 4.6 mm I.D.) (Alltech, Bergen op Zoom, The Netherlands). The mobile phase used for analysis of all the test compounds consisted of (A) 0.1 % trifluoroacetic acid in nanopure water and (B) HPLC-grade acetonitrile. Elution was at a flow rate of 0.8 ml/min, starting at 22 % B with a linear increase to 100 % B in 8 min.

[1] = in vitro BeWo transport model (placental transfer); conditions: human
Method: as §1, §2, §3, §4

SMILES | Intracellular accumulation (% of added amount) (BeWo b30 cell layers; BeWo cells, 50 μM (25 nmol) apical, at 90 min) | Papp at 30 min, 50 μM [1] | Intracellular accumulation (% of added amount) (BeWo b30 cell layers; human, 90 min, 50 μM) | Relative Papp value (BeWo b30 cell layers; human, not told, 50 μM)
CC1(C)S[C@@H]2[C@H](NC(=O)[C@H](N)c3ccc(O)cc3)C(=O)N2[C@H]1C(=O)O [Amoxicillin, amoxicillin, reference compound] | 0 % of added amount | 6.5 ± 0.2 ×10⁻⁶ cm/s |  | 
Cc1cc(=O)n(-c2ccccc2)n1C [Antipyrine, antipyrine, reference compound] |  | 38.9 ± 3 ×10⁻⁶ cm/s | 0 % of added amount | 1.00
